SMILES strings stand for the structures.

For one assay, the target named is T1, mTOR (Homo sapiens, UniProt P42345).
T1 construct: FLAG; made in house
T1 sequence (P42345 1362-2549): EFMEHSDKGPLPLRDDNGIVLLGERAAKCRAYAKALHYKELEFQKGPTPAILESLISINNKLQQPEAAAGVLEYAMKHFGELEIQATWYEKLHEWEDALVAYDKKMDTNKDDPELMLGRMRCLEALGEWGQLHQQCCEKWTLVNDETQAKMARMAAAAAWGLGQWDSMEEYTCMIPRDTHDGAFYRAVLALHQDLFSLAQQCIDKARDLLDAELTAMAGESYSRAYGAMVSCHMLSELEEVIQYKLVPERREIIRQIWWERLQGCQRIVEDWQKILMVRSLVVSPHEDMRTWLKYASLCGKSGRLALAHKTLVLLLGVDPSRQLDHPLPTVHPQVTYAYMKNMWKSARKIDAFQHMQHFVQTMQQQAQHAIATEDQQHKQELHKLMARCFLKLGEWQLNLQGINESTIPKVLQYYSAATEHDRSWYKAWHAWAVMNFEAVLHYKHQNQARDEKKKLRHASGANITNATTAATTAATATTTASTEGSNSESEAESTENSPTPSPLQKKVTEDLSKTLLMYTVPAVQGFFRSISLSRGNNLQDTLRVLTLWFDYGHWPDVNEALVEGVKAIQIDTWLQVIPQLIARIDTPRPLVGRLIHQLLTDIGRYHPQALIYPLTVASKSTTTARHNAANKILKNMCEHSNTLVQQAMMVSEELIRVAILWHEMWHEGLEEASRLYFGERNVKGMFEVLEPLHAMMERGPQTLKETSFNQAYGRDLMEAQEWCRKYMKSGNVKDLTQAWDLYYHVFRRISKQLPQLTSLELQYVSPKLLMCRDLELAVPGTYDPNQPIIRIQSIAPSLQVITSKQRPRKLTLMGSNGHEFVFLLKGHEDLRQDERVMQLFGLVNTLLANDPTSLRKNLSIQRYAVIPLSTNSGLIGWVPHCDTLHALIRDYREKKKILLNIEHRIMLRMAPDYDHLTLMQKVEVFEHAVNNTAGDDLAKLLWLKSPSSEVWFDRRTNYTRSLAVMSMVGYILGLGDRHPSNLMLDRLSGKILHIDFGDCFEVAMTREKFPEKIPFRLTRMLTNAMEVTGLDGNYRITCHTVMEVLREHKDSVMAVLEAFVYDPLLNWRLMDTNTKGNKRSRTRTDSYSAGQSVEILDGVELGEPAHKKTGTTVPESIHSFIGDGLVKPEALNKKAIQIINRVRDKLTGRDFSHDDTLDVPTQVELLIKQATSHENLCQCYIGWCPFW
The assay is described as follows: In Vitro mTOR Kinase Assay (Echo), Test (a)(ii). It is filed as biochemical. The note with it: read-out: mTOR Kinase Assay (Echo). The method in brief: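 Inhibition expressed as IC50 from an AlphaScreen read-out: phospho-T389 p70 S6K antibody plus streptavidin donor/protein A acceptor beads, left overnight in the dark. The kinase reaction ran 2 h at room temperature, then was stopped with EDTA. Enzyme: FLAG-purified mTOR 1362-2549 fragment from stable HEK293 cells.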
Turning to `CNC(=O)Nc1ccc(-c2nc(N3CCOCC3)cc(C3(S(C)(=O)=O)CC3)n2)cc1` [Example 12a, 3-methyl-1-[4-[4-(1-methylsulfonylcyclopropyl)-6-morpholin-4-ylpyrimidin-2-yl]phenyl]urea], the IC50 stood at 1.67 nM.

Turning to `CCNC(=O)Nc1ccc(-c2nc(N3CCOCC3)cc(C3(S(C)(=O)=O)CC3)n2)cc1` [Example 12b, 3-ethyl-1-[4-[4-(1-methylsulfonylcyclopropyl)-6-morpholin-4-ylpyrimidin-2-yl]phenyl]urea], the IC50 amounted to 2.71 nM.

For `CS(=O)(=O)C1(c2cc(N3CCOCC3)nc(-c3ccc(NC(=O)NC4CCC4)cc3)n2)CC1` [Example 12c, 3-cyclobutyl-1-[4-[4-(1-methylsulfonylcyclopropyl)-6-morpholin-4-ylpyrimidin-2-yl]phenyl]urea], the IC50 amounted to 1.52 nM.

Turning to `CS(=O)(=O)C1(c2cc(N3CCOCC3)nc(-c3ccc(NC(=O)NCCO)cc3)n2)CC1` [Example 12d, 3-(2-hydroxyethyl)-1-[4-[4-(1-methylsulfonylcyclopropyl)-6-morpholin-4-ylpyrimidin-2-yl]phenyl]urea], the IC50 is 1.55 nM.

In the case of `CC(C)(CO)NC(=O)Nc1ccc(-c2nc(N3CCOCC3)cc(C3(S(C)(=O)=O)CC3)n2)cc1` [Example 12e, 3-(1-hydroxy-2-methylpropan-2-yl)-1-[4-[4-(1-methylsulfonylcyclopropyl)-6-morpholin-4-ylpyrimidin-2-yl]phenyl]urea], the IC50 turned out to be 4.59 nM.

Turning to `CN(C)CCNC(=O)Nc1ccc(-c2nc(N3CCOCC3)cc(C3(S(C)(=O)=O)CC3)n2)cc1` [Example 12f, 3-(2-dimethylaminoethyl)-1-[4-[4-(1-methylsulfonylcyclopropyl)-6-morpholin-4-ylpyrimidin-2-yl]phenyl]urea], the IC50 worked out at 60.5 nM.

For the compound `CCCNC(=O)Nc1ccc(-c2nc(N3CCOCC3)cc(C3(S(C)(=O)=O)CC3)n2)cc1` [Example 12g, 1-[4-[4-(1-methylsulfonylcyclopropyl)-6-morpholin-4-ylpyrimidin-2-yl]phenyl]-3-propylurea], the IC50 came out at 2.73 nM.

On to `CS(=O)(=O)C1(c2cc(N3CCOCC3)nc(-c3ccc(NC(=O)NCCCO)cc3)n2)CC1` [Example 12h, 3-(3-hydroxypropyl)-1-[4-[4-(1-methylsulfonylcyclopropyl)-6-morpholin-4-ylpyrimidin-2-yl]phenyl]urea], for which the IC50 was found to be 3.92 nM.

For the compound `Cn1cc(NC(=O)Nc2ccc(-c3nc(N4CCOCC4)cc(C4(S(C)(=O)=O)CC4)n3)cc2)cn1` [Example 12i, 3-(1-methylpyrazol-4-yl)-1-[4-[4-(1-methylsulfonylcyclopropyl)-6-morpholin-4-ylpyrimidin-2-yl]phenyl]urea], the IC50 was 0.771 nM.

On to `CS(=O)(=O)C1(c2cc(N3CCOCC3)nc(-c3ccc(NC(=O)NC4CC4)cc3)n2)CCCC1` [Example 12j, 3-cyclopropyl-1-[4-[4-(1-methylsulfonylcyclopentyl)-6-morpholin-4-ylpyrimidin-2-yl]phenyl]urea], for which the IC50 was found to be 1.67 nM.

Take `CNC(=O)Nc1ccc(-c2nc(N3CCOCC3)cc(C3(S(C)(=O)=O)CCCC3)n2)cc1` [Example 12k, 3-methyl-1-[4-[4-(1-methylsulfonylcyclopentyl)-6-morpholin-4-ylpyrimidin-2-yl]phenyl]urea]: the IC50 stood at 4.3 nM.

Turning to `CS(=O)(=O)C1(c2cc(N3CCOCC3)nc(-c3ccc(NC(=O)NCCO)cc3)n2)CCCC1` [Example 12l, 3-(2-hydroxyethyl)-1-[4-[4-(1-methylsulfonylcyclopentyl)-6-morpholin-4-ylpyrimidin-2-yl]phenyl]urea], the IC50 came out at 1.38 nM.

For the compound `CC(C)(CO)NC(=O)Nc1ccc(-c2nc(N3CCOCC3)cc(C3(S(C)(=O)=O)CCCC3)n2)cc1` [Example 12m, 3-(1-hydroxy-2-methylpropan-2-yl)-1-[4-[4-(1-methylsulfonylcyclopentyl)-6-morpholin-4-ylpyrimidin-2-yl]phenyl]urea], the IC50 turned out to be 10.1 nM.

Regarding `CN(C)CCNC(=O)Nc1ccc(-c2nc(N3CCOCC3)cc(C3(S(C)(=O)=O)CCCC3)n2)cc1` [Example 12n, 3-(2-dimethylaminoethyl)-1-[4-[4-(1-methylsulfonylcyclopentyl)-6-morpholin-4-ylpyrimidin-2-yl]phenyl]urea], the IC50 is 238 nM.

As for `CS(=O)(=O)C1(c2cc(N3CCOCC3)nc(-c3ccc(NC(=O)NCCCO)cc3)n2)CCCC1` [Example 12o, 3-(3-hydroxypropyl)-1-[4-[4-(1-methylsulfonylcyclopentyl)-6-morpholin-4-ylpyrimidin-2-yl]phenyl]urea], the IC50 came out at 5.09 nM.

`CS(=O)(=O)C1(c2cc(N3CCOCC3)nc(-c3ccc(NC(=O)NC4CC4)cc3)n2)CCC1` [Example 12p, 3-cyclopropyl-1-[4-[4-(1-methylsulfonylcyclobutyl)-6-morpholin-4-ylpyrimidin-2-yl]phenyl]urea]: the IC50 was found to be 1.4 nM.

Take `CNC(=O)Nc1ccc(-c2nc(N3CCOCC3)cc(C3(S(C)(=O)=O)CCC3)n2)cc1` [Example 12q, 3-methyl-1-[4-[4-(1-methylsulfonylcyclobutyl)-6-morpholin-4-ylpyrimidin-2-yl]phenyl]urea]: the IC50 was determined as 1.62 nM.

On to `CS(=O)(=O)C1(c2cc(N3CCOCC3)nc(-c3ccc(NC(=O)NCCO)cc3)n2)CCC1` [Example 12r, 3-(2-hydroxyethyl)-1-[4-[4-(1-methylsulfonylcyclobutyl)-6-morpholin-4-ylpyrimidin-2-yl]phenyl]urea], for which the IC50 is 0.991 nM.

Consider `CN(C)CCNC(=O)Nc1ccc(-c2nc(N3CCOCC3)cc(C3(S(C)(=O)=O)CCC3)n2)cc1` [Example 12s, 3-(2-dimethylaminoethyl)-1-[4-[4-(1-methylsulfonylcyclobutyl)-6-morpholin-4-ylpyrimidin-2-yl]phenyl]urea], for which the IC50 stood at 134 nM.

Staying with this assay, now noted: table of enzyme assay Test (a)(ii); read-out: Test (a)(ii) IC50.
With `CS(=O)(=O)C1(c2cc(N3CCOCC3)nc(-c3ccc(NC(=O)NC4CCC4)cc3)n2)CC1` [Example 12c, 3-cyclobutyl-1-[4-[4-(1-methylsulfonylcyclopropyl)-6-morpholin-4-ylpyrimidin-2-yl]phenyl]urea], the IC50 came to 7.51 nM.

Take `CN(C)CCNC(=O)Nc1ccc(-c2nc(N3CCOCC3)cc(C3(S(C)(=O)=O)CC3)n2)cc1` [Example 12f, 3-(2-dimethylaminoethyl)-1-[4-[4-(1-methylsulfonylcyclopropyl)-6-morpholin-4-ylpyrimidin-2-yl]phenyl]urea]: the IC50 turned out to be 350 nM.

`CN(C)CCNC(=O)Nc1ccc(-c2nc(N3CCOCC3)cc(C3(S(C)(=O)=O)CCC3)n2)cc1` [Example 12s, 3-(2-dimethylaminoethyl)-1-[4-[4-(1-methylsulfonylcyclobutyl)-6-morpholin-4-ylpyrimidin-2-yl]phenyl]urea]: the IC50 turned out to be 117 nM.

`O=C(Nc1ccc(-c2nc(N3CCOCC3)cc(C3(S(=O)(=O)C4CC4)CC3)n2)cc1)NC1CC1` [Example 13, 3-Cyclopropyl-1-[4-[4-(1-cyclopropylsulfonylcyclopropyl)-6-morpholin-4-ylpyrimidin-2-yl]phenyl]urea]: the IC50 was 3.57 nM.

In the case of `CNC(=O)Nc1ccc(-c2nc(N3CCOCC3)cc(C3(S(=O)(=O)C4CC4)CC3)n2)cc1` [Example 13a, 1-[4-[4-(1-cyclopropylsulfonylcyclopropyl)-6-morpholin-4-ylpyrimidin-2-yl]phenyl]-3-methylurea], the IC50 stood at 3.41 nM.

As to `CCNC(=O)Nc1ccc(-c2nc(N3CCOCC3)cc(C3(S(=O)(=O)C4CC4)CC3)n2)cc1` [Example 13b, 1-[4-[4-(1-cyclopropylsulfonylcyclopropyl)-6-morpholin-4-ylpyrimidin-2-yl]phenyl]-3-ethylurea], the IC50 worked out at 3.7 nM.

In the case of `O=C(NCCO)Nc1ccc(-c2nc(N3CCOCC3)cc(C3(S(=O)(=O)C4CC4)CC3)n2)cc1` [Example 13d, 1-[4-[4-(1-cyclopropylsulfonylcyclopropyl)-6-morpholin-4-ylpyrimidin-2-yl]phenyl]-3-(2-hydroxyethyl)urea], the IC50 came to 3.51 nM.

Take `CC(C)(CO)NC(=O)Nc1ccc(-c2nc(N3CCOCC3)cc(C3(S(=O)(=O)C4CC4)CC3)n2)cc1` [Example 13e, 1-[4-[4-(1-cyclopropylsulfonylcyclopropyl)-6-morpholin-4-ylpyrimidin-2-yl]phenyl]-3-(1-hydroxy-2-methylpropan-2-yl)urea]: the IC50 worked out at 30.1 nM.

For the compound `CN(C)CCNC(=O)Nc1ccc(-c2nc(N3CCOCC3)cc(C3(S(=O)(=O)C4CC4)CC3)n2)cc1` [Example 13f, 1-[4-[4-(1-cyclopropylsulfonylcyclopropyl)-6-morpholin-4-ylpyrimidin-2-yl]phenyl]-3-(2-dimethylaminoethyl)urea], the IC50 was 386 nM.

As for `CCCNC(=O)Nc1ccc(-c2nc(N3CCOCC3)cc(C3(S(=O)(=O)C4CC4)CC3)n2)cc1` [Example 13g, 1-[4-[4-(1-cyclopropylsulfonylcyclopropyl)-6-morpholin-4-ylpyrimidin-2-yl]phenyl]-3-propylurea], the IC50 worked out at 4.79 nM.

In the case of `O=C(NCCCO)Nc1ccc(-c2nc(N3CCOCC3)cc(C3(S(=O)(=O)C4CC4)CC3)n2)cc1` [Example 13h, 1-[4-[4-(1-cyclopropylsulfonylcyclopropyl)-6-morpholin-4-ylpyrimidin-2-yl]phenyl]-3-(3-hydroxypropyl)urea], the IC50 is 10.6 nM.

Regarding `Cn1cc(NC(=O)Nc2ccc(-c3nc(N4CCOCC4)cc(C4(S(=O)(=O)C5CC5)CC4)n3)cc2)cn1` [Example 13i, 1-[4-[4-(1-cyclopropylsulfonylcyclopropyl)-6-morpholin-4-ylpyrimidin-2-yl]phenyl]-3-(1-methylpyrazol-4-yl)urea], the IC50 is 2.75 nM.

On to `O=C(Nc1ccc(-c2nc(N3CCOCC3)cc(C3(S(=O)(=O)C4CC4)CCCC3)n2)cc1)NC1CC1` [Example 13j, 3-cyclopropyl-1-[4-[4-(1-cyclopropylsulfonylcyclopentyl)-6-morpholin-4-ylpyrimidin-2-yl]phenyl]urea], for which the IC50 was 17.8 nM.

For `CNC(=O)Nc1ccc(-c2nc(N3CCOCC3)cc(C3(S(=O)(=O)C4CC4)CCCC3)n2)cc1` [Example 13k, 1-[4-[4-(1-cyclopropylsulfonylcyclopentyl)-6-morpholin-4-ylpyrimidin-2-yl]phenyl]-3-methylurea], the IC50 was 17.9 nM.

Consider `O=C(NCCO)Nc1ccc(-c2nc(N3CCOCC3)cc(C3(S(=O)(=O)C4CC4)CCCC3)n2)cc1` [Example 13l, 1-[4-[4-(1-cyclopropylsulfonylcyclopentyl)-6-morpholin-4-ylpyrimidin-2-yl]phenyl]-3-(2-hydroxyethyl)urea], for which the IC50 stood at 10.8 nM.

With `CC(C)(CO)NC(=O)Nc1ccc(-c2nc(N3CCOCC3)cc(C3(S(=O)(=O)C4CC4)CCCC3)n2)cc1` [Example 13m, 1-[4-[4-(1-cyclopropylsulfonylcyclopentyl)-6-morpholin-4-ylpyrimidin-2-yl]phenyl]-3-(1-hydroxy-2-methylpropan-2-yl)urea], the IC50 was determined as 53.2 nM.

The record behind these values is patent US20090018134A1, “Compounds - 945” (AstraZeneca AB, priority 2007, published 2009).
